The target of test [1] is T1, CX3CR1 (Homo sapiens, UniProt P49238).
T1 sequence (P49238 1-355): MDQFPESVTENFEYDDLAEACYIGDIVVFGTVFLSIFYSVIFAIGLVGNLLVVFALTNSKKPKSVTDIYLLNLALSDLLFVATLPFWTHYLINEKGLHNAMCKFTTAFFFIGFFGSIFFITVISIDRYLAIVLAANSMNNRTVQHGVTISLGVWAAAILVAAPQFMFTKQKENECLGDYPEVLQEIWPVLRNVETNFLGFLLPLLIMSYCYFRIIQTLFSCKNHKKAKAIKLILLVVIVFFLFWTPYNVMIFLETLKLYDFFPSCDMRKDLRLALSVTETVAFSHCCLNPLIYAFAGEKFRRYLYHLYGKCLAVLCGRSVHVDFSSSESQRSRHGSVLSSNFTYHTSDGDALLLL
Put plainly: 125I-CX3CL1 competition binding, CHO-hCX3CR1 membranes. On the set-up: host or cells: CHO-K1. The procedure:
Adherent CHO-K1 cells stably expressing human CX3CR1 (CHO-hCX3CR1) were grown in F12 medium with GlutaMAX, 10% FBS (Sigma–Aldrich) and 400 μg·ml^−1 geneticin and harvested at 80% confluency. Cells were washed in PBS and lysed with an Ultra-Turrax Homogenizer in 50 mM Tris/HCl (pH 7.4) and 1 mM EDTA with Complete™ protease inhibitor (Roche). […] Protein concentration was determined using the BCA method (Thermo Fisher Scientific). […] The filter plate was washed in ice-cold 25 mM HEPES (pH 7.4), 5 mM MgCl2, 1 mM CaCl2 and 500 mM NaCl and dried at 50°C for 1 h. Scintillation cocktail, Optiphase Supermix (PerkinElmer) was added to each well and the radioactivity was measured using a MicroBeta Trilux reader (PerkinElmer). All analysis and calculations were performed using GraphPad Prism 6.01. Functional and competition binding data were analysed using non-linear regression and fitted to a sigmoidal dose-response with variable slope according to the following equation: […] where Y is the amount of radioligand bound (cpm) or functional effect, Top denotes maximal asymptotic binding, and Bottom denotes the minimal asymptotic binding. XC50 is either the EC50 or the IC50 value, and X is the logarithm of the test compound concentration. Ki values were calculated from IC50 values using the Cheng–Prusoff equation: […]

Test [2] has as its target T2, CX3CR1 (RPMI-8226 cells endogenously expressing human CX3CR1) (Homo sapiens, UniProt P49238).
T2 construct: RPMI-8226 cells, a human B-lymphocyte cell line endogenously expressing human CX3CR1; CCL-155; host or cells: RPMI-8226
T2 sequence (P49238 1-355): T1 sequence (P49238 1-355)
Put plainly: Cellix flow adhesion of RPMI-8226 cells to full-length CX3CL1. Type of test: cell-based. Conditions: flow 0.5 dyn·cm^−2, 15 min pre-incubation, n=3; read-out: IC50, prevention of capture (adhesion) of RPMI-8226 cells to CX3CL1. The procedure: (§1) Adhesion of a human B-lymphocyte cell line (RPMI-8226) or hWB leucocytes to full-length human CX3CL1 were monitored using a microfluidics Cellix VenaFlux platform and Vena 8 Biochips (Cellix). Each channel on the Vena 8 chip was coated with anti-His monoclonal antibody (R&D Systems) followed by His-tagged full-length CX3CL1 (R&D Systems) and blocked for non-specific binding (NSB) with BSA.
(§2) Cell preparations: RPMI-8226 cells were cultured in RPMI 1640 medium with GlutaMAX and 20% FBS (HyClone, Perbio). Before the experiment, cells were centrifuged at 320 g and resuspended to 5 ×10^6 cells·ml^−1 in RPMI 1640 with 1% FBS. hWB with heparin as anti-coagulant was collected from healthy donors and 5 μM DiOC6 was added. AZD8797 was diluted in a 3-fold series in DMSO starting at 3.3 or 30 μM and pre-incubated with RPMI-8226 cells for 15 min or whole blood for 60 min. DMSO concentration held constant for all AZD8797 concentrations (0.1% for the RPMI-8226 experiments and 0.3% for the whole blood experiments). […]
(§3) RPMI-8226 cells in RPMI 1640+1% FBS or whole blood were pumped through the channels at 0.5 dyn·cm^−2 and 2.25 dyn·cm^−2 respectively, for 3 min. Images for quantification were captured using a microscope. Cells adhering to channels were counted and the mean values across five images in each channel were used for calculating the concentration–response curves.

For test [3], the target named is T1, CX3CR1. Put plainly: [3H]AZD8797 kinetic radioligand binding, CHO-hCX3CR1 membranes. Set-up: host or cells: CHO-K1. The procedure: Assays were performed as described under equilibrium binding studies with the additions stated below. Association experiments on [^3H]AZD8797 were performed by adding 1 · Kd of radioligand in assay buffer in a 96-well plate. The reactions were started by addition of CHO-hCX3CR1 membranes at different time points and then incubated for between 1.5 min and 2 h at room temperature before being filtered. For the [^3H]AZD8797 dissociation experiments 1 · Kd of radioligand was incubated with CHO-hCX3CR1 membranes for 1 h at room temperature before starting the dissociation with the addition of 10 μM unlabelled AZD8797. The reactions were incubated for between 2.5 min and 3 h at room temperature before being filtered.
For the association experiments, the radioligand data were fitted to the following monophasic exponential association equation and the association rate (kon) was calculated using the added amounts of radioligand (L) and dissociation rate (koff) as constants. koff was measured in separate dissociation experiments.
The dissociation data were fitted to the monophasic exponential decay equation: […]
where Y0 is the binding (cpm) at time zero, X is the time and NS is the (non-specific) binding at infinite times. Half-life could then be calculated by dividing ln (2) by koff. Multiple compound dissociation data were fitted to the biphasic exponential decay equation: […]

Test [4] deals with T1, CX3CR1. Put plainly: [35S]GTPγS accumulation assay, CHO-hCX3CR1 membranes. It counts as biochemical. On the set-up: host or cells: CHO-K1. (In general: Binding of GTPγS marks nucleotide exchange on a G protein.)
Protocol: Adherent CHO-K1 cells stably expressing human CX3CR1 (CHO-hCX3CR1) were grown in F12 medium with GlutaMAX, 10% FBS (Sigma–Aldrich) and 400 μg·ml^−1 geneticin and harvested at 80% confluency. Cells were washed in PBS and lysed with an Ultra-Turrax Homogenizer in 50 mM Tris/HCl (pH 7.4) and 1 mM EDTA with Complete™ protease inhibitor (Roche). After centrifugation at 1000 g for 10 min, membranes were collected by ultracentrifugation at 100000 g for 45 min at 4°C. The membranes were resuspended in 10 mM Tris/HCl (pH 7.4), 1 mM EDTA and 10% sucrose, divided into aliquots, frozen in liquid nitrogen and stored in −80°C. Protein concentration was determined using the BCA method (Thermo Fisher Scientific).
0.56 μCi·ml^−1 [^35S]GTPγS and EC80 of CX3CL1 were then added. The plate was incubated at 30°C for 1 h and subsequently unbound [^35S]GTPγS was separated from bound by vacuum filtration to a Printed Filtermat B (PerkinElmer) using a Skatron Micro96 harvester and dried at 50°C for 1 h. The filters were soaked with a melt-on scintillator sheet (MeltiLex, PerkinElmer), sealed using a MeltiLex heat sealer and measured in a MicroBeta Trilux reader (PerkinElmer).
Test [5] has as its target T1, CX3CR1. Put plainly: 125I-CX3CL1 competition assay, HEK293 cells co-transfected with Gqi5-protein (Karlstrom et al.). It counts as binding. On the set-up: host or cells: CHO-K1. Particulars: HEK293 Gqi5 vs CHO-hCX3CR1 membranes.
The target in test [6] is T3, CX3CR1 (human whole blood leucocytes) (Homo sapiens, UniProt P49238).
T3 construct: hWB with heparin as anti-coagulant was collected from healthy donors; from tissue; host or cells: human whole blood leucocytes (healthy volunteers)
T3 sequence (P49238 1-355): T1 sequence (P49238 1-355)
In words: Cellix flow adhesion of hWB leucocytes to full-length CX3CL1. It counts as cell-based. Conditions: flow 2.25 dyn·cm^−2, 60 min pre-incubation, n=2, read-out: IC50, prevention of capture (adhesion) of human blood leucocytes to CX3CL1. The procedure:
as §1, §2, §3

Values joined by “and” are separate entries in the source; they are usually repeats but may differ in a detail not shown here. Identical values can stand only once.

On to `CC(C)C[C@H](CO)Nc1nc(S[C@@H](C)c2ccccc2)nc2nc(N)sc12` [AZD8797], for which the “Lower potency than unlabelled CX3CL1 in displacing 125I-CX3CL1” value on CX3CR1 [1] is listed as 1000 fold. In addition, the EC50 on CX3CR1 [1] (10 pM 125I-CX3CL1, n=3, read-out: EC50, displacement of 125I-CX3CL1) worked out at 0.31 µM. Further, the IC50 in test [2] was 0.006 µM and 0.0058 µM; on CX3CR1 [4] (response from 2 nM CX3CL1 (EC80), n > 24, read-out: IC50, inhibition of CX3CL1-induced [35S]GTPγS accumulation), 0.34 µM; in test [6] it was 0.33 µM. The same compound gave a koff at CX3CR1 [3] (dissociation started with 10 μM unlabelled AZD8797, n=2) of 0.0007 s⁻¹. Further, at CX3CR1 [3] (from kobs (n=5) and koff, room temperature), the kon was 233000 M⁻¹ s⁻¹. At CX3CR1 [3] (from koff), the Dissociation half-life entry is recorded as “approximately 17 min”. At CX3CR1 [3] (koff/kon, read-out: Kd from rate constants), the Kd was determined as 0.0029 µM. Moreover, the “Agonistic effect in [35S]GTPγS accumulation” value at CX3CR1 [4] (compound alone, results not shown) is reported as “No agonistic effect”. Also, the “Higher affinity than in this paper's 125I-CX3CL1 competition assay” value at CX3CR1 [5] was approximately 100 fold.

Usually EC50 stands for the concentration at which the effect is half-maximal. By IC50 is commonly meant the concentration that inhibits the measured activity by half. Broadly, the koff is the rate constant with which the complex falls apart. High values mean a short-lived complex, low ones a long-lived complex. By kon is commonly meant the second-order rate constant of association. A higher kon goes with faster complex formation. Usually Kd stands for the constant that tells how readily two partners part at equilibrium.
